The values below come from patent US11266655B2, “Methods and compositions for treating urea cycle disorders” (Camp4 Therapeutics Corporation, priority 2019, dated 2022).

One series deals with c-Met (Homo sapiens, UniProt P08581). Conditions: cited from earlier work.
The test system of another series is NAGS. It counts as cell-based, human.
The next series concerns the target PDK1 (Homo sapiens, UniProt O15530). Particulars: cited from earlier work.
In the next series the target is RARα (Homo sapiens, UniProt P10276). Conditions: cited from earlier work.
A further series deals with RARβ (Homo sapiens, UniProt P10826). Particulars: cited from earlier work.
A further series deals with RARγ (Homo sapiens, UniProt P13631). Conditions: cited from earlier work.
Chain of RARγ (P13631 whole entry): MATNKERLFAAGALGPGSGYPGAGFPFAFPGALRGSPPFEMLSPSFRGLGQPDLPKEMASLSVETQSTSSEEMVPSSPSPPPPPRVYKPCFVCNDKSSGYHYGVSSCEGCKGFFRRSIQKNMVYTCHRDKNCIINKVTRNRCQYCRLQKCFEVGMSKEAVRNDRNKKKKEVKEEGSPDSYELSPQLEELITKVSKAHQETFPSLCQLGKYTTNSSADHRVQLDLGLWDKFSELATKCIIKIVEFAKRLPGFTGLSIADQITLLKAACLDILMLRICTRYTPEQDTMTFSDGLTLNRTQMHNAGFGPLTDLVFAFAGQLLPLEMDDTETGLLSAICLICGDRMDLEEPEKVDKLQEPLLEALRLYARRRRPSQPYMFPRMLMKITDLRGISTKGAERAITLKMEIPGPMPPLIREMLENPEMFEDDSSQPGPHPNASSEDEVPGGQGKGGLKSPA
In another series the test system is Bcr-Abl (T315I). Conditions: cited from earlier work.
The next series concerns Bcr-Abl (wildtype). Particulars: cited from earlier work.
The next series concerns calcium channel. Conditions: cited from earlier work.
A further series has as its target PKCγ (Homo sapiens, UniProt P05129). Conditions: cited from earlier work.
In the next series the target is PKCδ (Homo sapiens, UniProt Q05655). Conditions: cited from earlier work.
Chain of PKCδ (Q05655 whole entry): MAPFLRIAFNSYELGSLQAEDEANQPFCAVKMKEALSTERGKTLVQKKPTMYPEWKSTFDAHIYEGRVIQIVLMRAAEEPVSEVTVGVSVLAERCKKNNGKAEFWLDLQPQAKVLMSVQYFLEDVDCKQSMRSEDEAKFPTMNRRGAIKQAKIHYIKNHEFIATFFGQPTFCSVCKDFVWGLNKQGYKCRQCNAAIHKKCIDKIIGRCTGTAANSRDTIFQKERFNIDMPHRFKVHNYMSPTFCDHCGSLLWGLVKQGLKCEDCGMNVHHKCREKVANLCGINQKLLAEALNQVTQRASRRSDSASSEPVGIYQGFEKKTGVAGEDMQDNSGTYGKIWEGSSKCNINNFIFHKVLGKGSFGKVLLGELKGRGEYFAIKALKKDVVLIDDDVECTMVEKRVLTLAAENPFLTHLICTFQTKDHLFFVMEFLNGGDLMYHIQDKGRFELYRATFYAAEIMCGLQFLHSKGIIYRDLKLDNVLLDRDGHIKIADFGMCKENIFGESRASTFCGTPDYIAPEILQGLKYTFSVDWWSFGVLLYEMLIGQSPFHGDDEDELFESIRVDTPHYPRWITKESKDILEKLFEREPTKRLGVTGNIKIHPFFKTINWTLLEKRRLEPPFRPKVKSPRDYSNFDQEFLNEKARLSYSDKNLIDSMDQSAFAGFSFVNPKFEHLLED
A further series has as its target PKCβ (Homo sapiens, UniProt P05771). Particulars: cited from earlier work.
The next series concerns the target PKCα (Homo sapiens, UniProt P17252). Conditions: cited from earlier work.
The test system of a further series is ARG1. Put plainly: RNA-seq of compound-treated primary human hepatocytes, ARG1 expression. Conditions: for Fold change (Log 2) vs untreated, ARG1 expression: primary human hepatocytes, RNA-seq (Table 7). In kind it is cell-based.
For a further series, the target named is PDGFRα (Homo sapiens, UniProt P16234). Particulars: cited from earlier work.
The target in the next series is PDGFRβ (Homo sapiens, UniProt P09619). Conditions: cited from earlier work.
Chain of PDGFRβ (P09619 33-1106, species assumed): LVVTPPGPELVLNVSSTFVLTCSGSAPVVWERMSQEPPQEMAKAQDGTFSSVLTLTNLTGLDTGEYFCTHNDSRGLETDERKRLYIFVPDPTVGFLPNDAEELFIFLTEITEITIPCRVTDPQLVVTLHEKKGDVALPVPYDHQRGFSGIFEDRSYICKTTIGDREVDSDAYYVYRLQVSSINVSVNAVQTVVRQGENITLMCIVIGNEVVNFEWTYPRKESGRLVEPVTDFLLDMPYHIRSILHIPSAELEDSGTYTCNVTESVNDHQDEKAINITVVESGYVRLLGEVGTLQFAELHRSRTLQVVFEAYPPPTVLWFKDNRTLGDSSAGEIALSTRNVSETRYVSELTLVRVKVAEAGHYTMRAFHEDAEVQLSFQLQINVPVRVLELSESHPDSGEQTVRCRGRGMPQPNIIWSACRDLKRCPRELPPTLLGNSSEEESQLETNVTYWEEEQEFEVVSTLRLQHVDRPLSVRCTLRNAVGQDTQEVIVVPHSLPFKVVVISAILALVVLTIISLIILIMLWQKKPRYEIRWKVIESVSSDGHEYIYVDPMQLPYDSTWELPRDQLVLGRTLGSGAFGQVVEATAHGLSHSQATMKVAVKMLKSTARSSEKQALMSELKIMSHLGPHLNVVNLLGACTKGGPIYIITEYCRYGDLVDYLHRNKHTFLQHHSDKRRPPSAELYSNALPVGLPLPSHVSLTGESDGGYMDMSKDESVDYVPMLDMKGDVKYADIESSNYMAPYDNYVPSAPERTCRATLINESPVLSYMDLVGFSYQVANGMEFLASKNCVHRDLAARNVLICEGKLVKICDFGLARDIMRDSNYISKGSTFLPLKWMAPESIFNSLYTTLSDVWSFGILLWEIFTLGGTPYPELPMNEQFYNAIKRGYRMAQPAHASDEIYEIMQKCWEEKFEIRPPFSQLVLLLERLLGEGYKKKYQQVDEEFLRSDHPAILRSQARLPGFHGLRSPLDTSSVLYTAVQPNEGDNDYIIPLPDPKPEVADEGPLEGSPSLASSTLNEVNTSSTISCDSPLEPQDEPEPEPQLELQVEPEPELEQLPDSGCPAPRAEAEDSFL
For series [1], the system named is OTC. Kind of series: RNA-seq of compound-treated primary human hepatocytes, OTC expression. It counts as cell-based. Conditions: for OTC expression, Fold change (Log 2) vs untreated: RNA-seq.
For a further series, the system named is urea cycle genes. Kind of series: RNA-seq of primary human hepatocytes, compounds that modulate multiple urea cycle-related genes. Particulars: primary human hepatocytes, RNA-seq. It counts as cell-based.
The next series deals with SLC25A15. Kind of series: RNA-seq of compound-treated primary human hepatocytes, SLC25A15 expression. In kind it is cell-based. Conditions: primary human hepatocytes, RNA-seq (Table 8).
The subject of a further series is CPS1. Kind of series: RNA-seq of compound-treated primary human hepatocytes, CPS1 expression. In kind it is cell-based. Conditions: primary human hepatocytes; for CPS1 expression, Fold change (Log 2) vs untreated: RNA-seq.
The next series deals with ASS1. Put plainly: RNA-seq of compound-treated primary human hepatocytes, ASS1 expression. It counts as cell-based. Conditions: primary human hepatocytes.
A further series relates to ASL. Kind of series: RNA-seq of compound-treated primary human hepatocytes, ASL expression. Conditions: primary human hepatocytes. In kind it is cell-based.
In series [2] the test system is OTC. Kind of series: siRNA SMARTpool transfection of primary human hepatocytes, OTC qPCR (Table 3B). In kind it is cell-based. Particulars: siRNA 10 nM, 48 hrs, vs non-targeting siRNA. The method, then:
Primary human hepatocytes were reversed transfected with 6 pmol siRNA using RNAiMAX Reagent (ThermoFisher Cat No13778030) in 24 well format, 1 ul per well (for a final cone of 10 nM). The following morning, the medium was removed and replaced with Modified Maintenance Medium (see above) for an additional 24 hrs. The entire treatment lasted 48 hrs, at which point the medium was removed and replaced with RLT Buffer for RNA extraction (Qiagen RNeasy 96 QIAcube HT Kit Cat #74171). siRNAs were obtained from Dharmacon and are a pool of four siRNA duplex all designed to target distinct sites within the specific gene of interest (known as “SMARTpool”). They were tested against the control non-targeting siRNA D-001206-13-05.
Isolated RNA was processed for cDNA synthesis and qPCR as described above. Taqman assay used for OTC measurement: Hs00166892_ml

Series [3] has as its system OTC. Put plainly: Hepatocytes incubated with increasing concentrations of IFN-γ, OTC gene expression. It counts as cell-based, human. The method, then: To further assess the link between JAK1 and the urea cycle genes, hepatocytes were incubated with increasing concentrations of interferon (IFN)-γ, a known JAK1 activator. The cells were harvested for mRNA collection and OTC gene expression was determined as previously described.

[4] abbreviates: primary human hepatocytes, RNA-seq (Table 6).
Where [5] appears, read: Example 11, relative mRNA vs DMSO.

Where two headings read alike, the source gives them in different places.

Chain of c-Met (P08581 25-1390): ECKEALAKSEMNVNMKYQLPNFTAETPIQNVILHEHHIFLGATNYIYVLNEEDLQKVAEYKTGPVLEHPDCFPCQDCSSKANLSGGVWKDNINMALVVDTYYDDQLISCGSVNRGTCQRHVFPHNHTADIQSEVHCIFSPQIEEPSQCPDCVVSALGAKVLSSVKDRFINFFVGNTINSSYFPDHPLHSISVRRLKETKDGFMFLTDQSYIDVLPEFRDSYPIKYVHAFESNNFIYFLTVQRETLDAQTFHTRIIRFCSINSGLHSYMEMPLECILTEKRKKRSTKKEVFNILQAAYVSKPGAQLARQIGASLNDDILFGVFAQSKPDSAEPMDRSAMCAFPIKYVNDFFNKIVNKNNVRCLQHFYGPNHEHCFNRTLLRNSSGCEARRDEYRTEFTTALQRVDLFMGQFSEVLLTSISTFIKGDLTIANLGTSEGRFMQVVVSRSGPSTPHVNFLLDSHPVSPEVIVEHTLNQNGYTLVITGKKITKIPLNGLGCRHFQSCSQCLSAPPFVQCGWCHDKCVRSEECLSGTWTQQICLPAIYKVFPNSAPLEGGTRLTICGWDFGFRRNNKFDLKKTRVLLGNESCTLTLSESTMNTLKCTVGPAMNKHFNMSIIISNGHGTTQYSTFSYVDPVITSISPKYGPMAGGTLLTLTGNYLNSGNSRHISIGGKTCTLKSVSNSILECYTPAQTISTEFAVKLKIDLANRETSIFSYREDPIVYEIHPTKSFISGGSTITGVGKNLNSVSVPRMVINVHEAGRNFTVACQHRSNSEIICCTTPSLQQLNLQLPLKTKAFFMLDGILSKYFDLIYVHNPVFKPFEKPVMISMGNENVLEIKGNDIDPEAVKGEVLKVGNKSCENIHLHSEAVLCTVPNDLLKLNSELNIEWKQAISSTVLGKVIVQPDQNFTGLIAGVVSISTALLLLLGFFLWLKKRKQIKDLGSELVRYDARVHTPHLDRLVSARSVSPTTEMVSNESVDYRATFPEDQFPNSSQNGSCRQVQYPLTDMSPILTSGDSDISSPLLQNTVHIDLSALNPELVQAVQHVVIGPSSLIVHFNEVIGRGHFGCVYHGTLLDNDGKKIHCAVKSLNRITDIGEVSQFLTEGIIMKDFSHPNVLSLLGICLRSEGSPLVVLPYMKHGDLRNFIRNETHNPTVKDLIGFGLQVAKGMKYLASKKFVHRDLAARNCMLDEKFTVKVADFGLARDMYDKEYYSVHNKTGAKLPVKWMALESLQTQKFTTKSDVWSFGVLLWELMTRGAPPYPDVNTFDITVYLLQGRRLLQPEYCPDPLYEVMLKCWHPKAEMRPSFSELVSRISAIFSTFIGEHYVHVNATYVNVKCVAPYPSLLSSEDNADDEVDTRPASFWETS
Chain of PDK1 (O15530 whole entry): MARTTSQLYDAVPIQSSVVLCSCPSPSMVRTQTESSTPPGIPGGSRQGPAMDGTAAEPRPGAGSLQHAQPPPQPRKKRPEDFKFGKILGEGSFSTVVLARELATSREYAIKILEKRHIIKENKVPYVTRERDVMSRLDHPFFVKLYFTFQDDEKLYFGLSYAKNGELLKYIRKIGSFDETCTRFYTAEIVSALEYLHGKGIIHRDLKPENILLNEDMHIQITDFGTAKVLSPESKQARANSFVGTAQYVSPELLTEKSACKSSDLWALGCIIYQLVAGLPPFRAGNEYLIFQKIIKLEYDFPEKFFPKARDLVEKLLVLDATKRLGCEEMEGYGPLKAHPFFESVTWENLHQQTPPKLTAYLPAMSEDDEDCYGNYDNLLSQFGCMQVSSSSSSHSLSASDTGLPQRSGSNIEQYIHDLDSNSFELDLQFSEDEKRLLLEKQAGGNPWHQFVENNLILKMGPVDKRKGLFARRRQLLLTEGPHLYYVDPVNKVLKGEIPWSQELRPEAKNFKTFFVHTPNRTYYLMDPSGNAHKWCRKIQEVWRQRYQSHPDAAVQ
Experimental for urea cycle genes: To identify small molecules that modulate urea cycle enzymes, primary human hepatocytes were prepared as a monoculture, and at least one small molecule compound was applied to the cells.
RNA-seq was performed to determine the effects of the compounds on the expression of urea cycle enzymes in hepatocytes. Fold change was calculated by dividing the level of expression in the cell system that had been perturbed by the level of expression in an unperturbed system. Changes in expression having a p-value ≤0.05 were considered significant.
Significance was defined as an FPKM ≥1, a log 2 (fold change) ≥0.5, and a q-value of ≤0.05 for selected gene target.

`Cc1ccc(C(=O)Nc2ccc(Oc3cc4cnn(C)c4cc3-c3cn[nH]c3)c(F)c2)c(=O)n1-c1ccc(F)cc1` [Merestinib]: the “half life (t1/2)” value on c-Met was 8.75 h.
For the molecule `NCC(=O)Nc1ccc(-n2nc(C(F)(F)F)cc2-c2ccc3c(ccc4ccccc43)c2)cc1` [OSU-03012], the “Fold change (Log 2) vs untreated, NAGS expression” value in the series with NAGS (setting [4]) turned out to be 1.03 Log 2. Further, the “increase in potency over OSU-02067” value on PDK1 was 2 fold.
In the case of `COCCOCOc1cc2ccc(-c3ccc(C(=O)O)cc3)cc2cc1C12CC3CC(CC(C3)C1)C2` [CD 2665], the dissociation constant (Kd) (in general, a measure of binding affinity in units of concentration) at RARα was above 1000 nM; on RARβ it was 306 nM; on RARγ it was 110 nM. Besides, in the series on NAGS, the “Fold change (Log 2) vs untreated, NAGS expression” value is 0.62 Log 2.
On to GZD824 Dimesylate, for which the concentration for half-maximal inhibition (IC50) – broadly, the concentration at which inhibition is half-maximal – in the series on Bcr-Abl (T315I) is 0.68 nM; in the series on Bcr-Abl (wildtype), 0.34 nM.
For the molecule `CCOC(=O)C1=C(COCCN)NC(C)=C(C(=O)OC)C1c1ccccc1Cl` (stereo not drawn) [Amlodipine Besylate], the “Fold change (Log 2) vs untreated, NAGS expression” value in the series with NAGS (setting [4]) was 0.73 Log 2. In addition, in the series on calcium channel, the IC50 is 1.9 nM.
As for `COc1ccc2c(c1)c(C1=C(c3c[nH]c4ccccc34)C(=O)NC1=O)cn2CCCN(C)C` [GO6983], the IC50 on PKCγ was 6 nM; on PKCδ it was 10 nM; on PKCβ, 7 nM; on PKCα, 7 nM. In addition, in the series with NAGS (setting [4]), the “Fold change (Log 2) vs untreated, NAGS expression” value stood at 0.7 Log 2.
On to `COCCOc1ccc2c(c1)ncn2-c1ccc2cccc(N3CCC(N)CC3)c2n1` [CP-673451], for which, in the series on ARG1 (setting [5]), the “increase in ARG1 gene expression (Tables 17, 18, FIG. 9, 10)” value is on record as “greatest increase”. Besides, in the series with ARG1, the “Fold change (Log 2) vs untreated, ARG1 expression” value is 3.21 Log 2. The IC50 on PDGFRα was 10 nM. Further, the “selectivity over other angiogenic receptors” value on PDGFRβ is reported as above 450 fold. In addition, the “Relative OTC level vs Untreated (±Standard Deviation)” value in the series with OTC [1] (10 uM, primary human hepatocytes, triplicate (Table 14)) is listed as 3.36 ± 1.73. Besides, in the series on OTC [1] (setting [5]), the “increase in OTC gene expression (Table 14, FIG. 6)” value is “significant increase”. Besides, the “OTC expression, Fold change (Log 2) vs untreated” value in the series on OTC [1] (primary human hepatocytes) amounted to 2.63 Log 2. In the series with urea cycle genes, the “number of urea cycle genes whose expression was significantly up-regulated” value is reported as “six”. Moreover, the “Fold change (Log 2) vs untreated, SLC25A15 expression” value in the series on SLC25A15 was 0.76 Log 2. For the same molecule, the “Relative CPS1 level vs Untreated (±Standard Deviation)” value in the series with CPS1 (10 uM, triplicate (Table 20, FIG. 12)) is 3.90 ± 0.97. In addition, in the series with CPS1, the “CPS1 expression, Fold change (Log 2) vs untreated” value came out at 1.77 Log 2. Further, the “Relative ASS1 level vs Untreated (±Standard Deviation)” value with ASS1 (10 uM, triplicate (Table 15, FIG. 8)) was found to be 2.13 ± 0.68. Also, the “Fold change (Log 2) vs untreated, ASS1 expression” value in the series on ASS1 (RNA-seq (Table 4)) was 1.52 Log 2. Besides, the “Relative ASL level vs Untreated (±Standard Deviation)” value in the series with ASL (10 uM, triplicate (Table 25, FIG. 17)) was found to be 2.94 ± 0.78. In addition, the “ASL expression, Fold change (Log 2) vs untreated” value in the series on ASL (RNA-seq) is 1.81 Log 2.
For IGF-1: Insulin-like growth factor I, the “Max fold change in OTC” value in the series with OTC [2] was 1.69 fold. Moreover, the “Fold change (Log 2) vs untreated, ARG1 expression” value in the series on ARG1 amounted to 1.89 Log 2. Besides, in the series with OTC [1] (primary human hepatocytes), the “OTC expression, Fold change (Log 2) vs untreated” value came out at 0.76 Log 2. Moreover, the “number of urea cycle genes whose expression was significantly up-regulated” value in the series on urea cycle genes was “four”. For the same molecule, the “Up-regulated Genes” value in the series on urea cycle genes (urea cycle-related genes significantly increased (Table 10)) is listed as “CPS1, OTC, ARG1, SLC25A15”. Further, in the series with SLC25A15, the “Fold change (Log 2) vs untreated, SLC25A15 expression” value is given as 0.8 Log 2. In addition, in the series with CPS1, the “CPS1 expression, Fold change (Log 2) vs untreated” value is listed as 2.22 Log 2.
As to “SMAD3 (DNA YGTCTAGACA; siRNA; chemistry not given here; the letters are possibly those of the target site)”, in the series with OTC [2], the “Max fold change in OTC” value was determined as 2.49 fold.
Turning to “IRF1 (DNA GAAAGTGAAAGT; siRNA; chemistry not given here; the letters are possibly those of the target site)”, the “Max fold change in OTC” value in the series on OTC [2] turned out to be 1.70 fold.

B1: IFN-γ: interferon (IFN)-γ, a known JAK1 activator (protein, UniProt P01579 24-161, looked up)
Interferon gamma: QDPYVKEAENLKKYFNAGHSDVADNGTLFLGILKNWKEESDRKIMQSQIVSFYFKLFKNFKDDQSIQKSVETIKEDMNVKFFNSNKKKRDDFEKLTNYSVTDLNVQRKAIHELIQVMAELSPAAKTGKRKRSQMLFRG
B1: the “OTC gene expression after IFN-γ” value in the series on OTC [3] was “dose-dependent decrease”; in the series on OTC [3] (listed as IFNγ), “decreases”.
